Laboratory results from the supplement of paper PMC10307832.

Legend:
Test in all cases: relative viability (nuclei count vs DMSO), 5 days (fraction); higher = more cells survive
Sulindac + Luminespib = compound: CC1=C(CC(=O)O)c2cc(F)ccc2/C1=C\c1ccc([S+](C)[O-])cc1 [Sulindac] + CCNC(=O)c1noc(-c2cc(C(C)C)c(O)cc2O)c1-c1ccc(CN2CCOCC2)cc1 [Luminespib] (partner 0.01 µM)
Outline: (§1)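 After 5 days of treatment, lung cancer cells in 1536-well plates were fixed and stained in a single step (final 0.05% Triton X-100, 1% formaldehyde, 1 ug/ml Hoechst) and their nuclei counted on 4× images. Treatment had been applied by pin tool the day after seeding as one drug alone or as a fixed anchor-drug dose with five library-drug doses (not always all listed) in √10 steps. Relative viability is the nuclei count of treated wells divided by that of vehicle wells, and values are medians of duplicate plates.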

[1] = compound: CN[C@@H]1C[C@H]2O[C@@](C)([C@@H]1OC)n1c3ccccc3c3c4c(c5c6ccccc6n2c5c31)C(=O)NC4 [Staurosporine] + Cc1cc(Nc2cc(N3CCN(C)CC3)nc(Sc3ccc(NC(=O)C4CC4)cc3)n2)n[nH]1 [Tozasertib] (partner 0.1 µM)
Outline: as §1

[2] = compound: CN[C@@H]1C[C@H]2O[C@@](C)([C@@H]1OC)n1c3ccccc3c3c4c(c5c6ccccc6n2c5c31)C(=O)NC4 [Staurosporine] + N=C(N)NC(=N)NCCc1ccccc1 [Phenformin] (partner 250 µM)
Outline: as §1

Staurosporine + AZD7762 = compound: CN[C@@H]1C[C@H]2O[C@@](C)([C@@H]1OC)n1c3ccccc3c3c4c(c5c6ccccc6n2c5c31)C(=O)NC4 [Staurosporine] + NC(=O)Nc1cc(-c2cccc(F)c2)sc1C(=O)N[C@H]1CCCNC1 [AZD7762] (partner 0.2 µM)
Outline: as §1

Cell Line | relative viability (Sulindac + Luminespib; first compound 0.08 µM) | relative viability (Sulindac + Luminespib; first compound 0.253 µM) | relative viability (Sulindac + Luminespib; first compound 0.8 µM) | relative viability (Sulindac + Luminespib; first compound 2.53 µM) | relative viability (Sulindac + Luminespib; first compound 8 µM) | relative viability ([1]; first compound 0.005 µM) | relative viability ([1]; first compound 0.01581 µM) | relative viability ([1]; first compound 0.05 µM) | relative viability ([1]; first compound 0.1581 µM) | relative viability ([1]; first compound 0.5 µM) | relative viability ([2]; first compound 0.005 µM) | relative viability ([2]; first compound 0.01581 µM) | relative viability ([2]; first compound 0.05 µM) | relative viability ([2]; first compound 0.1581 µM) | relative viability (Staurosporine + AZD7762; first compound 0.005 µM) | relative viability (Staurosporine + AZD7762; first compound 0.01581 µM) | relative viability (Staurosporine + AZD7762; first compound 0.05 µM) | relative viability (Staurosporine + AZD7762; first compound 0.1581 µM) | relative viability (Staurosporine + AZD7762; first compound 0.5 µM) | relative viability ([2]; first compound 0.5 µM)
HCC-827 | 0.566 | 0.916 | 0.475 | 0.606 | 0.412 | 0.442 | 0.313 | 0.358 | 0.329 | 0.263 | 0.43 | 0.35 | 0.214 | 0.167 | 0.204 | 0.179 | 0.153 | 0.143 | 0.115 | –
HOP-62 | 1.34 | 0.974 | 0.708 | 0.977 | 0.942 | 0.349 | 0.237 | 0.114 | 0.128 | 0.103 | 0.426 | 0.232 | 0.133 | 0.102 | 0.358 | 0.128 | – | 0.126 | 0.0794 | 0.1
LC-2-ad | 1.03 | 0.947 | 1.07 | 0.994 | 1.18 | 0.435 | 0.239 | 0.253 | 0.219 | 0.161 | 0.485 | 0.2 | 0.154 | – | – | 0.276 | 0.172 | 0.12 | 0.0995 | 0.171
LCLC-97TM1 | 0.978 | 0.847 | 0.673 | 0.644 | 0.876 | 0.277 | 0.139 | 0.181 | 0.199 | 0.221 | 0.212 | 0.171 | 0.184 | 0.158 | 0.225 | 0.121 | 0.169 | 0.176 | 0.141 | 0.149
LCLC-103H | 1.21 | 1.09 | 0.751 | 0.886 | 0.996 | 0.534 | 0.207 | 0.174 | 0.128 | 0.146 | 0.296 | 0.211 | 0.16 | 0.108 | 0.827 | 0.41 | 0.334 | 0.231 | 0.194 | 0.105
LK-2 | 0.2 | 0.18 | – | – | 0.167 | 0.164 | – | 0.156 | 0.149 | 0.151 | 0.676 | – | – | 0.127 | 0.571 | 0.448 | 0.394 | 0.0558 | 0.0592 | 0.126
LOU-NH91 | 0.322 | 0.322 | 0.314 | 0.328 | 0.401 | 0.727 | 0.483 | 0.375 | 0.302 | 0.191 | 0.467 | 0.302 | 0.334 | 0.228 | 0.555 | 0.341 | 0.395 | 0.254 | 0.247 | 0.168
NCI-H520 | 0.21 | 0.204 | 0.246 | 0.228 | 0.199 | 0.57 | 0.473 | 0.423 | 0.366 | 0.303 | 0.758 | 0.233 | 0.394 | 0.25 | – | – | – | – | – | 0.166
NCI-H661 | 0.969 | 0.97 | 0.852 | 0.9 | 0.957 | 0.392 | 0.445 | 0.401 | 0.335 | 0.238 | 0.277 | 0.235 | 0.27 | 0.19 | – | – | – | – | – | 0.131
NCI-H1563 | 0.449 | 0.553 | 0.535 | 0.551 | 0.498 | – | – | – | – | – | 0.566 | 0.533 | 0.577 | 0.506 | – | – | – | – | – | 0.416
NCI-H1623 | 0.424 | 0.459 | 0.51 | 0.462 | 0.507 | 0.491 | 0.495 | 0.406 | 0.425 | 0.277 | 0.574 | 0.578 | 0.631 | 0.59 | – | – | – | – | – | 0.306
NCI-H1648 | – | – | – | – | – | 0.236 | 0.185 | 0.169 | 0.214 | 0.243 | – | – | – | – | 0.611 | 0.409 | 0.373 | 0.412 | 0.388 | –
NCI-H1650 | 0.201 | 0.197 | – | 0.192 | 0.211 | 0.332 | 0.302 | 0.17 | 0.203 | 0.123 | 0.217 | 0.147 | 0.109 | 0.108 | – | – | – | – | – | 0.0714
NCI-H1703 | – | – | – | – | – | – | – | – | – | – | – | – | – | – | 0.121 | 0.0954 | 0.107 | 0.083 | 0.118 | –
NCI-H1792 | 0.409 | 0.475 | – | 0.384 | 0.627 | – | – | – | – | – | 0.255 | 0.0732 | 0.0598 | 0.0859 | 0.227 | 0.0748 | 0.0605 | 0.0466 | 0.0293 | 0.0427
NCI-H2009 | 1.15 | 1.01 | 1.05 | 0.986 | 1.15 | 0.295 | 0.312 | 0.176 | 0.19 | 0.0978 | 0.207 | 0.188 | 0.216 | 0.131 | – | – | – | – | – | 0.0831
NCI-H2023 | 0.923 | 0.845 | – | 0.649 | 0.92 | 0.202 | 0.21 | 0.0713 | 0.0971 | 0.0603 | 0.214 | 0.16 | 0.128 | 0.0907 | – | – | – | – | – | 0.0615
NCI-H2228 | 0.115 | 0.129 | 0.131 | 0.185 | 0.163 | 0.251 | 0.201 | 0.109 | 0.115 | 0.124 | 0.254 | 0.166 | 0.11 | 0.0655 | – | – | – | – | – | 0.0891
SK-LU-1 | 0.193 | 0.204 | 0.175 | 0.202 | 0.215 | 0.168 | 0.115 | – | 0.133 | 0.0818 | 0.235 | 0.111 | – | 0.0994 | – | – | – | – | – | 0.0726
SK-MES-1 | 0.875 | 0.985 | 0.78 | 0.735 | 0.935 | 0.52 | 0.327 | 0.149 | 0.125 | 0.125 | 0.345 | 0.267 | 0.185 | 0.132 | – | – | – | – | – | 0.219
SW 1573 | 0.197 | 0.25 | 0.242 | 0.293 | 0.284 | 0.153 | 0.186 | 0.119 | 0.0873 | 0.069 | 0.201 | 0.156 | 0.0959 | 0.101 | – | – | – | – | – | 0.0586
